Assay results from US12714677B2, “Dual chamber syringe for administering a hormone encapsulated by a hydrogel” (VITALTE LIFESCIENCES INC., priority 2024, dated 2026).

Columns and labels:
[1] = E2 release from hydrogel discs, E2 pellets and E2 powder into incubation medium (ELISA); format: physicochemical; settings: 50 mL incubation medium, 37° C., 6 rpm
From the text: (§1) Low standards were removed from the analysis.

[2] = Release assay on E2 microspheres (same manner as discs); format: physicochemical; settings: day 3
Experimental: Release assays on the E2 microspheres were conducted in the same manner as described above for the discs.
as §1

[3] = cited from earlier work

| SMILES | E2 released into incubation media (concentration) ([1]; day 1 / 24 hours) | E2 released into incubation media (concentration) ([1]; day 2 / 48 hours) | E2 released into incubation media (accumulated concentration) ([1]; day 3 / 72 hours) | E2 release level [2] | solubility factor in water compared to E2 [3] |
| --- | --- | --- | --- | --- | --- |
| C[C@]12CC[C@@H]3c4ccc(O)cc4CC[C@H]3[C@@H]1CC[C@@H]2O [E2 powder, Beta-estradiol] | about 1.85 mg/L | reached the saturation point of the incubation media | maintained the saturation point concentration | approximates the saturation level of E2 in the incubation medium | – |
| C[C@]12CC[C@H]3[C@@H](CCC4=CC(=O)CC[C@@]43C)[C@@H]1CC[C@@H]2O [T, Testosterone] | – | – | – | – | much higher |
